The values below come from PubChem BioAssay AID493181 (Southern Research Specialized Biocontainment Screening …, 2011).

The source made the active and inactive calls. The rule behind the calls is not given here. Where a SMILES comes first, the peptide text is derived from it. The star is where a group is joined. Cbz = O=C(OCc1ccccc1)* A value given as a limit tells only on which side of the number the result lay.

For assay [1], the system named is M. tuberculosis H37Rv growth inhibition, no glycerol. The assay is described as follows: M. tuberculosis growth inhibition, confirmation, H37Rv, purified and synthesized compounds (AID 493181). Conditions: for IC90: 90% growth inhibition concentration.
Assay in assay [2]: as above
The conditions noted are these: M. tuberculosis H37Rv growth inhibition, no glycerol; at 100 µM (top of the series).

As a reminder, the IC50 is the midpoint of a concentration-inhibition curve. Broadly, the IC90 is the concentration at which the effect reaches the 90% level. Low values mean greater potency, high ones weaker potency. As to `Cc1nn2c(NCc3ccccn3)cc(C(C)C)nc2c1-c1ccccc1`, in assay [1], the IC50 is 1480 nM and the IC90 was 2670 nM. As for `CC(=NCc1ccc2c(c1)OCO2)C1=C(O)c2ccccc2C1=O`, in assay [1], the IC50 was less than 200 nM and the IC90 is 2600 nM. On to `O=C(CSc1nc2ccccc2c(=O)[nH]1)NCc1ccc(Cl)cc1`, for which, in assay [1], the concentration for half-maximal inhibition (IC50) was 390 nM and the IC90 was determined as 1820 nM. `CNc1nc(SCc2ccccc2Cl)nc2c1CCCC2`: in assay [1], the IC50 is less than 200 nM and the concentration for an effect of 90% (IC90) was 2320 nM. Regarding `COC(=O)C(C)Oc1ccc(-c2nccc(-c3ccccn3)n2)cc1` (centres undefined), in assay [1], the half-maximal inhibitory concentration (IC50) was 1490 nM and the IC90 is 3310 nM. Taken in the same sequence, the figures for `CCC(C)Nc1ccc(NC(C)CC)cc1` (centres undefined) were 1100 nM and 1500 nM.

On to `Cc1cccc(/C=C/C(=O)c2ccc([N+](=O)[O-])o2)c1`, for which, in assay [1], the IC50 was less than 200 nM and the IC90 is less than 200 nM.

Take `O=C1C(Br)=Cc2cccc3cccc1c23`: in assay [1], the half-inhibitory concentration (IC50) is less than 200 nM and the IC90 is less than 200 nM. Turning to `c1ccc(/N=C2\N=C(Nc3ccccn3)c3ccccc32)nc1`, in assay [1], the IC50 is less than 200 nM and the IC90 is less than 200 nM. As to `COC(=O)C1CC(=O)N(c2ccc(OCc3ccccc3Cl)cc2)C1` (centres undefined), in assay [1], the half-maximal inhibitory concentration (IC50) was 830 nM and the 90% effect concentration (IC90) was found to be 8400 nM. For `Cc1nc(SCC(=O)NC2CCCCC2)[nH]c(=O)c1C`, in assay [1], the concentration for half-maximal inhibition (IC50) is less than 200 nM and the IC90 was found to be 540 nM. As to `O=C(/C=C/c1ccccc1)N1CCN(CCN2C(=O)c3cccc4cccc(c34)C2=O)CC1`, in assay [1], the IC50 was 3170 nM and the 90% effect concentration (IC90) is more than 100000 nM. `COC(=O)CCc1nc2c(C#N)c(-c3ccc(Cl)cc3)ccn2n1`: in assay [1], the IC50 is 760 nM and the IC90 stood at 7910 nM.

In the case of `CCOC(=O)C(C)Sc1ncnc2c1nnn2-c1ccc(F)cc1` (centres undefined), in assay [1], the IC50 was 1380 nM and the concentration for an effect of 90% (IC90) was 3380 nM. For the molecule `S=c1nc[nH]c2nc[nH]c12`, in assay [1], the half-inhibitory concentration (IC50) was 1500 nM and the IC90 worked out at 1650 nM. For `Cc1ccc2c(c1)c(C1=c3ccccc3=NC1=O)c(O)n2C` the same measures were 840 nM and 1470 nM. With `COc1cc(NC(=O)C/C(C)=N/NC(=O)c2ccccn2)c(OC)cc1Cl`, in assay [1], the IC50 is 3690 nM and the IC90 turned out to be 8340 nM.

Consider `CCOC(=O)CNC(=O)[C@H](Cc1ccccc1)NC(=O)OCc1ccccc1` (Cbz-Phe-Gly-OEt), for which, in assay [1], the IC50 is 1410 nM and the concentration for an effect of 90% (IC90) is 2110 nM.

Regarding `O=C(NCC(c1cccs1)N1CCOCC1)c1cc([N+](=O)[O-])cc([N+](=O)[O-])c1` (centres undefined), in assay [1], the concentration for half-maximal inhibition (IC50) is less than 200 nM and the IC90 worked out at 780 nM. On to `O=C(CSc1nc2ccccc2c(=O)[nH]1)NC1CCCCC1`, for which, in assay [1], the half-maximal inhibitory concentration (IC50) was less than 200 nM and the concentration for an effect of 90% (IC90) was less than 200 nM.

Consider `CCOC(=O)COn1c2c(c3c4no[n+]([O-])c4ccc31)CCCC2`, for which, in assay [1], the half-inhibitory concentration (IC50) was 2140 nM and the 90% effect concentration (IC90) is 3780 nM. With `CCOC(=O)c1ccc(NC(=O)Cn2ncc(Cl)c(Cl)c2=O)cc1`, in assay [1], the half-maximal inhibitory concentration (IC50) is less than 200 nM and the concentration for an effect of 90% (IC90) came to 1550 nM. For `O=C(/C=C\c1cccs1)N1CCN(Cc2ccc3c(c2)OCO3)CC1`, in assay [1], the IC50 is less than 200 nM and the 90% effect concentration (IC90) stood at 2780 nM.

For `CCc1ccc(/C=C2/C(=O)N(C)C(=S)N2CC(=O)OC)s1`, in assay [1], the 50% inhibitory concentration (IC50) is 2950 nM and the IC90 came to 7160 nM. Taken in the same sequence, the figures for `COC(=O)c1cc(=O)n(-c2ccc(F)cc2)c(=Nc2ccc(F)cc2)s1` were less than 200 nM and 4510 nM.

On to `Cc1ccc(NC(=O)C2C3/C=C\CCCCC32)cc1C` (centres undefined), for which, in assay [1], the 50% inhibitory concentration (IC50) is 1480 nM and the 90% effect concentration (IC90) is 1680 nM. With `Cc1ccc2ccc3ccc(C)nc3c2n1`, in assay [1], the 50% inhibitory concentration (IC50) is less than 200 nM and the IC90 turned out to be 920 nM.

As for `CC(C)NC(=O)c1sc(=S)n2c1[nH]c(=O)c1ccc(C(=O)NCCc3ccc(Cl)cc3)cc12`, in assay [1], the half-maximal inhibitory concentration (IC50) is less than 200 nM and the IC90 was 1510 nM. In general, inhibition refers to the share of the control response that was lost under treatment. `Oc1ccccc1/C=N/Nc1ccnc(SCc2ccccc2)n1`: the inhibition in assay [2] was 0.65% (inactive). For `CCOC(=O)COc1ccc(/C=C2\NC(=S)N(CC)C2=O)cc1`, in assay [1], the concentration for half-maximal inhibition (IC50) was 1930 nM and the IC90 came to 3450 nM.
